Tests used:
[1] = human, in vivo; cited from earlier work
B16 melanoma = assay: Tumor treatment assay, palpable B16 model; format: in vivo, C57BL/6 mice; settings: palpable B16, single subcutaneous treatment in contralateral limb
Procedure: IDC-1005 was incubated with irradiated GVAX cells at 4 deg C. for 0.5-2, hours prior to inoculation. GVAX formulated with IDC-1005 is labeled as TEGVAX.
Tumor treatment assay: C57BL/6 mice were injected with 1-5×10^4 B16 in the footpads. Once palpable tumor developed (5-10 days), 100 μl of 10^6 B16 GVAX formulated with or without IDC-1005 were injected subcutaneously into the contralateral limb. The control groups were injected with vehicle. For all these experiments, 10 mice were used per group. […] For all the vaccines, GM-CSF was titered to ensure that GM-CSF expression level ranged from 50-500 ng/10^6 Cells/24 hours. Tumor was measured daily.

TLR4 = settings: cited from earlier work

Compound	safety / toxicity in patients [1]	tumor growth rate / in vivo anti-tumor response (B16 melanoma)	TH1 type cytokines on activation of dendritic cells (TLR4; murine and human dendritic cells, in vivo and in vitro, versus MPL)	TLR4 agonist strength (TLR4; versus monophosphoryl lipid A)
ipilimumab: anti-CTLA-4 antibody	grade 3-4 toxicity	–	–	–
CCCCCCCCCCCCCC(=O)O[C@H](CCCCCCCCCCC)CC(=O)O[C@@H]1[C@@H](NC(=O)C[C@H](CCCCCCCCCCC)OC(=O)CCCCCCCCCCCCC)[C@H](OC[C@H]2O[C@H](O)[C@H](NC(=O)C[C@H](O)CCCCCCCCCCC)[C@@H](OC(=O)C[C@H](O)CCCCCCCCCCC)[C@@H]2O)O[C@H](CO)[C@H]1OP(=O)(O)O [GLA, glucopyranosyl lipid A]	–	no in vivo anti-tumor effects	more potent in terms of increasing multiple TH1 type cytokines	stronger TLR4 agonist than the monophosphyl lipid A
CCOCc1nc2c(N)nc3ccccc3c2n1CC(C)(C)O [R848, resiquimod]	passed phase 1 trials for safety	–	–	–
